# Measured values taken from patent publication US20060099712A1, “Correlation of anti-cancer activity of dyes with redox potentials” (Eastman Kodak Company, priority 2004, published 2006).
# Where two headings read alike, the source gives them in different places.
# Experiments:
# [1] = test system: CV-1 Normal Monkey Kidney Epithelial; assay: Clonogenic dye screening assay, CV-1 cells (IC50); format: cell-based, African green monkey; conditions: Primates
# Text: CX-1 is a cancerous human colon adenocarcinoma cell line. CV-1 is a non-cancerous control, which is a kidney epithelial cell line from an African green monkey. IC50 is the dye concentration at which 50% of the cells are killed. Selectivity or kill ratio is defined as the ratio of […] at IC50 for both CX-1 and CV-1. A ratio with a high number indicates a high selectivity.
# The dyes were screened in two cell lines. CX-1 is a human colon adenocarcinoma cell line. CV-1 is a kidney epithelial cell line from an African green monkey. CV-1 was used as a reference because no normal human epithelial cell line is available for clonogenic assay.
# In the initial screen, dyes were examined at six different concentrations to generate a dose response curve. An IC50 value, the concentration at which 50% of the cells are killed, was then calculated. Initially, a dye concentration of 1.0 μg/mL was the highest examined for the CX-1 cell line and 0.005 μg/mL was the lower limit. The corresponding limits on the CV-1 cell line were […].
# The screening procedure used a response curve that was determined from eight dye concentrations. The upper and lower limits of CX-1 were 0.32 and 0.0015 μg/mL, respectively, and the corresponding revised limits on CV-1 were 3.2 and 0.025 μg/mL. The screening results were reported by assigning an IC50 value to each dye for the CV-1 and CX-1 cell lines. These values will be referred to herein simply as CV and CX. The most desirable result would be to have a dye that was highly toxic to carcinoma cells but nontoxic to ‘normal’ cells. One measure of this type of selectivity is the ratio of the IC50's in the normal cell line to that in the carcinoma line, CV/CX.
# Compounds are screened via an in vitro assay. CV-1 and CX-1 cells are seeded into separate assay plates. The plates are treated with varying concentrations of test compounds, rinsed, and colonies allowed to grow. IC50's are determined and drugs evaluated based on their selectivity and toxicity. Assay Steps: • I. Seeding Cells • II. Weighing • III. Preparation of Solution • IV. Treatment • V. Rinsing and Feeding • VI. Fixing • VII. IC50 Determination I. Seeding Cells
# The cells should be seeded 16-30 hours before treatment. The media for CV-1 cells is DME+5% calf serum +5% Nuserum. The media for CX-1 cells is RPMI/DME (50/50)+5% calf serum +5% Nuserum.
# (c) number of cells based on 2000 CX-1 cells/well and 1000 CV-1 cells/well. NOTE: Always make enough cell suspension for 1 extra plate to allow for volume loss during transfers.
# • (a) For CV-1: 256 ug/ml-256 ul of 1 mg/ml stock +744 ul DMSO • (b) For CX-1: 25.6 ug/ml-100 ul of 256 ug/ml+900 ul DMSO IV. Treatment • 1. Each plate is treated with 4 test compounds, one positive control and one negative control. • 2. Serial dilutions of the compounds are made in the following way:
# 2 multi-well pipetters are used. One is set for 10 ul and one for 200 ul. Each is equipped with 6 tips spaced such that they fit into the 6 rows of a plate. 390 ul of media is added to the first column of each plate. 10 ul each of 4 compound solutions, a positive and a negative control are taken up and put into the first column of wells. The 200 ul pipetter is then placed in the same wells, pipetted up and down 3 times and two 200 ul aliquots are moved to the next column of wells. This column is pipetted up and down 3 times and 400 ul moved to column 3, etc. The final 400 ul excess from column 8 is discarded.
# • 3. Label the plates along the front, each row −1 compound. • 4. Incubate the plates at 37° C. for 3 hrs. V. Rinsing • 1. Prepare several bottles of CX-1 and CV-1 media. • 2. Check for precipitate in first column of each plate and note. • 3. Starting with the plates treated first, rinse several plates at a time by aspirating the treatments and refilling each well with 0.5-1.0 ml of the rinse media. Aspirate and refill 2 more times for a total of 3 rinses. • 4.
# [2] = Clonogenic dye screening assay, CX-1 cells (IC50); format: cell-based, human; conditions: Homo sapiens, CX-1, Table XII column 5; unit from method; read-out: CV (Table XII)
# In short: (§1)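 Cells seeded 16-30 h ahead (2000 CX-1 or 1000 CV-1 per well), exposed to serially diluted dyes for 3 h at 37 °C, rinsed three times, then grown into colonies. Eight-point curves spanned 0.32-0.0015 μg/mL (CX-1) and 3.2-0.025 μg/mL (CV-1). IC50 is the concentration killing 50% of cells.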
# [3] = test system: CX-1 Human Colon Carcinoma; assay: Clonogenic dye screening assay, CX-1 cells (IC50); format: cell-based; conditions: for IC50: Homo sapiens; for Selectivity: Table 1, cell line not given, values equal CV/CX of Table II; for CV/CX (selectivity, kill ratio): ratio of IC50 in normal CV-1 line to IC50 in carcinoma CX-1 line
# In short: as §1
# [4] = In vivo tests (toxicity)
# Text: Benzothiazole is by far the next best.
# [5] = test system: CCL 105 Human Adrenal Cortex Carcinoma; assay: Initial in vitro screening, adrenal cortex carcinoma cells; format: cell-based; conditions: cell line 8, CCL 105 human adrenal cortex carcinoma; unit from method; read-out: IC50 (concentration at which 50% of the cells of the culture are killed)
# Text: (§2) Other publications have shown that some cyanine dyes show anti-cancer activity. See I. Minami, Y. Kozai, H. Nomura and T. Tashiro, Chem. Phar. Bull. 30:3106 (1982); W. M. Anderson, D. L. Delinick, L. Benninger, J. M. Wood, S. T. Smiley and L. B. Chen, Biochemical Pharmacology, 45:691 (1993). […] (See L. G. S. Brooker, L. A. Sweet, Science, 105, (1947) and I. Minami, Y. Kozai, H. Nomura, T. Tashiro, Chem. Pharm. Bull., 30,3106 (1982) on chemotherapeutic investigations of cyanine dyes.) Table I lists initial in vitro screening results in various cell lines and a comparison with Adriamycin, which is a widely used chemotherapeutic agent.
# (§3) Description of Cell Line • 1. CV-1 Normal Monkey Kidney Epithelial (control) • 2. CX-1 Human Colon Carcinoma • 3. Human Breast Carcinoma • 4. Human Pancreatic Carcinoma • 5. Human Bladder Carcinoma • 6. Human Lung Carcinoma • 7. Human Squamous Cell Carcinoma • 8. Human Adrenal Cortex Carcinoma
# [6] = test system: EJ Human Bladder Carcinoma; assay: Initial in vitro screening, bladder carcinoma cells; format: cell-based; conditions: cell line 5, EJ human bladder carcinoma; unit from method; read-out: IC50 (concentration at which 50% of the cells of the culture are killed)
# Text: as §2, §3
# [7] = test system: MCF-7 Human Breast Carcinoma; assay: Initial in vitro screening, breast carcinoma cells; format: cell-based; conditions: MCF7; cell line 3, MCF-7 human breast carcinoma; unit from method; read-out: IC50 (concentration at which 50% of the cells of the culture are killed)
# Text: as §2, §3
# [8] = test system: SCC 68 Human Squamous Cell Carcinoma; assay: Initial in vitro screening, squamous cell carcinoma cells; format: cell-based; conditions: cell line 7, SCC 68 human squamous cell carcinoma; unit from method; read-out: IC50 (concentration at which 50% of the cells of the culture are killed)
# Text: as §2, §3
# [9] = test system: CCL 185 Human Lung Carcinoma; assay: Initial in vitro screening, lung carcinoma cells; format: cell-based; conditions: cell line 6, CCL 185 human lung carcinoma; unit from method; read-out: IC50 (concentration at which 50% of the cells of the culture are killed)
# Text: as §2, §3
# [10] = test system: CRL 1420 Human Pancreatic Carcinoma; assay: Initial in vitro screening, pancreatic carcinoma cells; format: cell-based; conditions: cell line 4, CRL 1420 human pancreatic carcinoma; unit from method; read-out: IC50 (concentration at which 50% of the cells of the culture are killed)
# Text: as §2, §3
# [11] = Octanol/water partition (log P); format: physicochemical; conditions: shaking with water and octanol
# Text: Octanol/water partition coefficients (log P) are usually used as a model of drug transport between water and the biophase, as disclosed in A. Leo, C. Hansch, Substituent Constants—for Correlation Analysis in Chemistry. and' Biology, Wiley, New York, 1979 and A. Leo, C. Hansch, D. Elkins, Chem. Rev., 6, 525 (1971), both incorporated herein by reference. Often partition coefficients can be measured simply by shaking the compound with a mixture of water and octanol and determining the concentration of the solute in either solvent. P is equal to the concentration of the solute in octanol divided by its concentration in water. In general, it is possible to measure log P values ranging from −4.0 to 6.0. The situation is also more complicated when the species is charged because of the effects of ion pairing.
# [12] = Dye solubility (water, 5% dextrose/water); format: physicochemical; conditions: for solubility: among compounds with enhanced activity
# Text: Dye solubility is also a factor, since compounds having low water solubility are difficult or impossible to include in in vivo testing.
# S13 is one of the simplest cyanine dye structures possible (in this nomenclature the S refers to the sulfur, the 1 indicates one carbon on the nitrogen and 3 indicates a 3 methine chain). […] A synthetic challenge will be to enhance the activity/selectivity of this dye and retain its good water solubility. [drawing 23]
# [13] = Table XXII; chain substituent hydrophobicity parameter; cited from earlier work
# [14] = Table XXII; chain substituent electronic parameter; cited from earlier work
# [15] = Table XXII; chain substituent steric parameter; cited from earlier work
# [16] = Table XXII; chain substituent steric parameter; cited from earlier work; remark: listed apart in the source
# [17] = CV-1, 3 hrs treatment, colonies after 7-10 days, unit from method, read-out: CV (IC50 in the CV-1 cell line)
# [18] = CX-1, 3 hrs treatment, colonies after 7-10 days, unit from method, read-out: CX (IC50 in the CX-1 cell line)
compound,measurement,setting,value
CCN1/C(=C/C=C/c2sc3ccccc3[n+]2CC)Oc2ccccc21 [Dye D-104],IC50,[1]; [17],1 µg/mL
same,IC50,"[1]; CV-1, Table XVI, unsymmetrical dyes, CV-1 cells, read-out: CV",1 µg/mL
same,IC50,[2],0.005 µg/mL
same,IC50,[3]; [18],0.005 µg/mL
same,IC50,"[3]; CX-1, Table XVI, unsymmetrical dyes, CX-1 cells, read-out: CX",0.005 µg/mL
same,Selectivity,[3],200
same,CV/CX,"[3]; Table XVI, selectivity ratio of IC50 values",200.0
same,"CV/CX (selectivity, kill ratio)",[3],200
Indole,"CV/CX (selectivity, kill ratio)",[3],highest selectivity
same,toxicity in vivo,[4],high toxicity
"CCN1/C(=C/N=N/c2sc3ccccc3[n+]2CC)Sc2ccccc21 [Dye O-1, reference compound]",IC50,[5],0.3 µg/mL
same,IC50,[6],0.3 µg/mL
same,IC50,[7],0.3 µg/mL
same,IC50,[8],0.3 µg/mL
same,IC50,"[1]; CV-1, cell line 1, CV-1 normal control, unit from method, read-out: IC50 (concentration at which 50% of the cells of the culture are killed)",7.5 µg/mL
same,IC50,"[3]; CX-1, cell line 2, CX-1, unit from method, read-out: IC50 (concentration at which 50% of the cells of the culture are killed)",0.5 µg/mL
same,IC50,[9],0.8 µg/mL
same,IC50,[10],0.75 µg/mL
"CCN1C(=CC=Cc2sc3ccccc3[n+]2CC)Sc2ccccc21.[I-] [3,3′-diethylthiacarbocyanine iodide]",octanol/water partition,[11],partition completely into the octanol phase
CN1/C(=C/C=C/c2sc3ccccc3[n+]2C)Sc2ccccc21 [Dye D-100],solubility,[12],most desirably soluble
same,π,[13],0.00
same,F,[14],0.00
same,R,[14],0.00
same,σm,[14],0.00
same,σp,[14],0.00
same,B1,[15],1.00
same,L,[15],2.06
same,IC50,[1]; [17],0.5 µg/mL
same,IC50,"[1]; CV-1, Table XX, thiacarbocyanine nitrogen substituents, CV-1 cells, read-out: CV",0.5 µg/mL
same,IC50,[3]; [18],0.005 µg/mL
same,IC50,"[3]; CX-1, Table XX, thiacarbocyanine nitrogen substituents, CX-1 cells, read-out: CX",< 0.005 µg/mL
same,Selectivity,[3],100
same,CV/CX,"[3]; Table XX, ratio given a value of 1 where dye inactive",100.0
same,"CV/CX (selectivity, kill ratio)",[3],100
same,MR,[16],0.103
CCN1/C(=C/C=C/c2sc3cc4c(cc3[n+]2CC)OCO4)Oc2ccccc21 [Dye D-163],IC50,[1]; [17],0.3 µg/mL
same,IC50,[2],< 0.005 µg/mL
same,IC50,[3]; [18],0.3 µg/mL
same,"CV/CX (selectivity, kill ratio)",[3],>60.0
CN1/C(=C/C=C/c2sc3ccccc3[n+]2C)Sc2ccccc21 [Dye S13],solubility in 5% dextrose/water solutions,[12]; 5% dextrose/water,good solubility
CN1/C(=C/C=C/c2sc3cc4ccccc4cc3[n+]2C)Sc2cc3ccccc3cc21.Cc1ccc(S(=O)(=O)[O-])cc1 [Dye D-140],solubility,[12],most desirably soluble
same,CX (IC50 in the CX-1 cell line),"[3]; 3 hrs treatment, colonies after 7-10 days, unit from method b117-118",<0.005 µg/mL
same,"CV/CX (selectivity, kill ratio)",[3],60
CCN1/C(=C/C=C/c2oc3ccc(-c4ccccc4)cc3[n+]2CC)Sc2ccccc21 [Dye D-131],IC50,[1]; [17],0.3 µg/mL
same,IC50,[2],< 0.005 µg/mL
same,IC50,[3]; [18],< 0.005 µg/mL
